The values below come from patent US20250049927A1, “MODIFIED OLIGONUCLEOTIDE-DRUG CONJUGATE AND USE THEREOF” (INTEROLIGO CORPORATION., priority 2021, published 2025).

Data set [1] is described as follows: in vivo. Conditions: male, Sprague-Dawley, rat, iv, 2 mg/kg. How it is done:
Specifically, Sprague-Dawley male rats (8 weeks old, purchased from Youngbio) were acclimatized for 1 week in the animal room of the Catholic University Songsim Campus, and then pharmacokinetic experiments were performed. Rats were induced with isoflurane, an inhalation anesthetic, and PE50 (polyethylene tubing, Clay Adams, Becton Dickinson, NJ, USA) was inserted into the carotid (for blood collection) and jugular vein (for drug administration), followed by suturing with suture, and then end portions thereof were fixed to the back of the neck. During the surgery, anesthesia was maintained using ether, and about 0.5 mL of physiological saline solution containing heparin (20 units/mL) was injected to prevent blood from coagulating in the cannula. After completing the surgery, each rat was placed in a metabolic cage and allowed to fully recover from the anesthetic (for 4-5 hours). Then, the rats were divided into three groups of a group administered with Example 9 (IO176) alone (n=6), and a group administered with MMAE alone (n=7), and a group administered with gemcitabine alone (n=6), and each sample (Example 9, MMAE alone, gemcitabine alone) was administered into the rats. All of Example 9, MMAE and gemcitabine were dissolved in physiological saline at 2 mL per kg of body weight and administered into the jugular vein at doses of 40 mg/kg, 4 mg/kg and 2 mg/kg, respectively. When collecting blood, in order to prevent gemcitabine in 0.2 mL of blood from being converted into metabolites by cytidine deaminase, a light-shielding Eppendorf tube was prepared in which 2 μL of a solution containing tetrahydrouridine (hereinafter referred to as THU), a cytidine deaminase inhibitor, dissolved in distilled water at a concentration of 10 mg/mL was added in advance. […] Immediately after completing the blood collection, the plasma that had been stored in an ice-bath was quickly centrifuged at 4° C., and 100 μL of the plasma was dispensed into the light-shielding Eppendorf tube. The dispensed plasma was quickly stored in an ice-bath and maintained at −80° C. until LC-MS/MS analysis was performed. After collection of blood from the carotid, the rats were euthanized in a CO2 gas chamber.
• Analysis equipment: Agilent 1290 series HPLC, Qtrap 5500 LC-MS/MS • Detector: Tandem mass spectrometer (triple quadrouple type) • Ion source: Electrospray ionization (positive ion mode) • Desolvation temperature: 500° C. • Nebulizing gas: Nitrogen, Collision gas: Nitrogen • Quantitation: MRM (multiple reaction monitoring) mode • Stationary phase: Hypersil gold C18 column (2.1×100 mm, 1.9 μm, Thermo) Fisher Scientific Inc., Boston, USA) • Stationary phase temperature: 40° C. • Mobile phase: Distilled water (A) and acetonitrile (B) respectively containing 0.1% formic acid (95:5, v/v) (see [Table below) • Flow rate: 0.22 mL/min • Mass parameters: See [Table 8] below (CE: Collision energy)
Each of gemcitabine and dFdU standard product was dissolved in distilled water to prepare 400 μg/mL and 700 μg/mL of storage solutions and store them frozen. Then, the storage solutions were diluted with tertiary distilled water to prepare working solutions so that the concentrations were 0.200, 0.400, 0.800, 2.00, 10.0 and 40.0 μg/mL, respectively, followed by storing them in a refrigerator. 5′-Deoxy-5-fluorocytidine, an internal standard (IS), was dissolved in acetonitrile to prepare 50 ng/mL of working solution. The working solution of gemcitabine and dFdU was added to rat blank plasma containing THU to prepare standard plasma samples so that the plasma concentrations of gemcitabine and dFdU were 10, 20, 40, 100, 500 and 2000 ng/mL, respectively.
150 μL of 5′-Deoxy-5-fluorocytidine (50 ng/mL), the internal standard dissolved in acetonitrile, was added to 20 μL of rat plasma, and vortexed for 10 minutes, followed by centrifuging at 14,000 rpm at 4° C. for 5 minutes.

The test system of data set [2] is BxPC-3 pancreatic cancer cell lines. In words: Pancreatic cancer cell growth inhibition, WST assay. Type of data set: cell-based. Conditions: BxPC-3, 72 hours treatment, absorbance 450 nm. How it is done:
The in vitro anticancer efficacy of the modified oligonucleotide-drug conjugates was verified using pancreatic cancer cell lines. Pancreatic cancer cell lines (BxPC-3) were treated with the above-described examples and comparative examples at concentrations of 0, 0.01, 0.1, 1, 10, 100, 500 and 1000 μM, and the specific IC50 measurement method and measurement results are as follows.
All cell lines were cultured in a 5% CO2 incubator at 37° C. The BxPC-3 pancreatic cancer cell lines were cultured using a medium containing 10% FBS and 1% antibiotics put into ATCC modified RPMI-1640 (Thermo Scientific, USA). The medium was replaced once every 2-3 days, and passage-cultured at a time when about 70-90% of a culture dish was filled with the cells. First, the cells were washed with PBS, then 0.05% Trypsin-EDTA was added and cultured at 37° C. for 2 minutes, and then a new medium was added to inactivate trypsin. The cells were separated from trypsin and medium using a centrifuge, then another new medium was added and passaged at a ratio of 1:4, followed by culturing the same. All cells were periodically checked for contamination by mycoplasma using a kit (Intron, Korea), and in vitro efficacy evaluation experiments were conducted using only cells in which contamination was not detected.
Using WST reagent (Dongin LS, Korea), an inhibitory effect on pancreatic cancer cell growth by drug treatment was confirmed and IC50 was measured. An orange coloring substance called formazan is produced in WST by mitochondrial dehydrogenase within cells, which is effective only in living cells. The specific test method is as follows.
The cells cultured by the above-described method were dispensed by 2×10^4 into each well of a 96-well culture vessel and cultured for 24 hours. The medium of the cells attached to the culture vessel was replaced with an ATCC modified RPMI-1640 medium containing 5% FBS, and samples of the above-described modified oligonucleotide-drug conjugates (Examples 1-7 and 9-12, and Comparative Example 1-7, respectively) were treated at concentrations of 0, 0.01, 0.1, 1, 10, 100, 500 and 1000 μM. After 72 hours, 10 μl of WST reagent was added to each well and reacted for 2 hours. The produced formazan was measured with an absorbance at 450 nm using a Glomax plate meter (Promega, USA), and IC50 was evaluated according to the protocol in the device. IC50 evaluation results and graphs illustrating the same are shown in Table 2 below and FIGS. 19 to 27 (in Table 2, M=Gemcitabine, and N=5-FdU).

As for `Nc1ccn([C@@H]2O[C@H](CO)[C@@H](O)C2(F)F)c(=O)n1` [Gemcitabine, 2′,2′-difluoro-2′-deoxycytidine], the Vd (commonly the apparent volume that relates the amount in the body to the concentration in plasma or blood) in data set [1] (in vivo) was 2.73 ± 1.22 L/kg. For the same molecule, in data set [1] (plasma), the AUC(0-inf) (as a rule, the area under the concentration-time curve extrapolated to infinity) is 7500 ng·h/mL; the area under the curve AUC(0-t) (in general, the area under the concentration-time curve up to a stated or last time point) was 7300 ng·h/mL; the MRT – broadly, the average time that molecules of a dose stay in the body – is 5.7 h; the clearance (in general, the volume of plasma or blood freed of the substance per unit of time) is 4.77 ± 1.43 mL/min/kg. Also, the half-life – broadly, how long it takes for the measured level to halve – in data set [1] (plasma) was found to be 6.8 ± 2.78 h.
On to “Comparative Example 1: control aptamer GGTGGTGGTGGTTGTGGTGGTGGTGG (SEQ ID NO: 1)”, for which the IC50 (commonly the point on the concentration scale where inhibition reaches its midpoint) in data set [2] is 89900 nM.
Regarding “Comparative Example 2 (GGTGGTGGTGGTTGNGGTGGTGGTGG; paclitaxel conjugate; modified_base 15 OTHER; deoxyuridine(dU)-acrylamide-C6-NH2)”, the IC50 in data set [2] came to 4590 nM.
“Comparative Example 3 (GGTGGTGGTGGTNGTGGTGGTGGTGG; paclitaxel via acrylamide-C6-NH-succinic acid linker; modified_base 13 OTHER; deoxyuridine(dU)-acrylamide-C6-NH2)” displayed an IC50 in data set [2] of 40 nM.
The same measure, in the same setting: next, “Comparative Example 6: DM1 conjugated to U of GGTGGTGGTGGTUGTGGTGGTGGTGG (SEQ ID NO: 3); linker -acrylamide-C6-NH-SMCC- (DNA ggtggtggtggtngtggtggtggtgg; DM1 via acrylamide-C6-NH-SMCC linker; modified_base 13 OTHER; deoxyuridine(dU))”: 3010 nM; “Example 1: paclitaxel conjugated to U of GGTGGTGGTGGUMGTGGTGGTGGTGG (SEQ ID NO: 4), M=Gemcitabine; linker -acrylamide-C6-NH-succinic acid- (DNA GGTGGTGGTGGNNGTGGTGGTGGTGG; paclitaxel via linker; gemcitabine at M; modified_base 12 OTHER; deoxyuridine(dU); modified_base 13 OTHER; Gemcitabine)”: 2210 nM; “Example 2 (GGTGGTGGTGGNTNTGGTGGTGGTGG; paclitaxel via acrylamide-C6-NH-succinic acid linker; modified_base 12 OTHER; deoxyuridine(dU); modified_base 14 OTHER; gemcitabine)”: 230 nM.
Regarding “Example 3 (GGTGGTGGTGGTNNTGGTGGTGGTGG; paclitaxel via acrylamide-C6-NH-succinic acid linker on U; modified_base 13 OTHER; deoxyuridine(dU); modified_base 14 OTHER; gemcitabine)”, the half-inhibitory concentration (IC50) in data set [2] amounted to 1000 nM. This IC50 lies about 4.3-fold higher than the previous one.
On to “Example 6: paclitaxel conjugated to U of GGTGGTGGTGGTUGTGGTGGTGGMGG (SEQ ID NO: 9), M=Gemcitabine; linker -acrylamide-C6-NH-succinic acid- (DNA GGTGGTGGTGGTNGTGGTGGTGGNGG; paclitaxel via linker; gemcitabine at M; modified_base 13 OTHER; deoxyuridine(dU); modified_base 24 OTHER; gemcitabine)”, for which, in data set [2], the IC50 worked out at 140 nM.
Same read-out and setting: next, “Example 7 (GGTGGTGGTGGTTGNGGTGGTGGNGG; paclitaxel via acrylamide-C6-NH-succinic acid linker on U; modified_base 15 OTHER; deoxyuridine(dU); modified_base 24 OTHER; gemcitabine)”: 110 nM; “Example 11: DM1 conjugated to U of GGTGGTGGTGGMUGMGGTGGTGGTGG (SEQ ID NO: 8), M=Gemcitabine; linker -acrylamide-C6-NH-SMCC- (DNA GGTGGTGGTGGNNGNGGTGGTGGTGG; gemcitabine nucleotides; DM1 via SMCC linker; modified_base 13 OTHER; deoxyuridine(dU); modified_base 12 OTHER; gemcitabine; modified_base 15 OTHER)”: 26700 nM.
